Assay results reported in ChEMBL document CHEMBL5038680, “Design, Synthesis, and Evaluation of PD-1/PD-L1 Antagonists Bearing a Benzamide Scaffold” (ACS Med Chem Lett, 2022).
The source made the active and inactive calls. The calls are words filed in the database; no cut-off is given here.

Assays:
[1] = target: T1, Programmed cell death protein 1/Programmed cell death 1 ligand 1 (Homo sapiens, UniProt Q15116+Q9NZQ7); experiment: Inhibition of PD-1/PDL-1 (unknown origin) interaction incubated for 15 mins by TR-FRET assay; format: protein-complex assay
[2] = target: T1, Programmed cell death protein 1/Programmed cell death 1 ligand 1; experiment: Inhibition of PD-1/PDL-1 (unknown origin) interaction at 1 uM incubated for 15 mins by TR-FRET assay; format: protein-complex assay
MDA-MB-231 [3] = experiment: Cytotoxicity against human MDA-MB-231 cells assessed as cell killing by PBMC cell activation at 1 uM incubated for 24 hrs by LDH assay; format: functional, cell-based
MDA-MB-231 [4] = experiment: Cytotoxicity against human MDA-MB-231 cells assessed as cell killing at 2 uM incubated for 24 hrs by LDH assay; format: functional, cell-based

T1 sequence (Q15116 whole entry): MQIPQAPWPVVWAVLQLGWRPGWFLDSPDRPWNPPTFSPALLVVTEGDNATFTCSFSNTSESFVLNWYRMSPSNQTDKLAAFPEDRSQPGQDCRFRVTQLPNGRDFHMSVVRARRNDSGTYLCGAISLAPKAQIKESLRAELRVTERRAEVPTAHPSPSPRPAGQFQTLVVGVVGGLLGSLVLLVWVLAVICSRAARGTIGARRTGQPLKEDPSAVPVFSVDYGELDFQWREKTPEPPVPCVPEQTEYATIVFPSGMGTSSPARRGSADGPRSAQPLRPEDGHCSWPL
T1 sequence (Q9NZQ7 whole entry): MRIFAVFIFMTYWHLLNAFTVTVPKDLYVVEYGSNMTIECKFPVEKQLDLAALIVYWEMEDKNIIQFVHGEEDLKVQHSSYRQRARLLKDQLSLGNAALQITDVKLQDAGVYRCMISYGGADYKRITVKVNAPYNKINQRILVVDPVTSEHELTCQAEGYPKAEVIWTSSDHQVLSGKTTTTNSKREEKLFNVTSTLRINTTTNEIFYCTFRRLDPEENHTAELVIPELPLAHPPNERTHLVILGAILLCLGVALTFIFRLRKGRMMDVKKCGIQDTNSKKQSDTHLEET

COc1ccccc1-c1cccc(C(=O)Nc2ccc(CNCCNC(C)=O)cn2)c1Cl
IC50 [1]: > 1 µM | inhibition [2]: 5.52%

COc1nc(NC(=O)c2cccc(-c3ccccc3)c2Cl)ccc1CNCCN(C)C
IC50 [1]: > 1 µM | inhibition [2]: 11.6%

COc1ccc(-c2cccc(C(=O)Nc3ccc(CNCCNC(C)=O)cn3)c2Cl)cc1
IC50 [1]: > 1 µM | inhibition [2]: 8.37%

CC(=O)NCCNCc1ccc(NC(=O)c2cccc(-c3ccccc3)c2Cl)nc1
IC50 [1]: 0.496 µM

O=C(Nc1ccc(CNCCO)c(F)n1)c1cccc(-c2ccccc2)c1Cl
IC50 [1]: 0.429 µM

CC(=O)NCCNCc1cccc(NC(=O)c2cccc(-c3ccccc3)c2Cl)n1
IC50 [1]: > 1 µM | inhibition [2]: 15.8%

O=C(Nc1ccc(CNCCO)c(C(F)(F)F)n1)c1cccc(-c2ccccc2)c1Cl
IC50 [1]: > 1 µM | inhibition [2]: 41.5%

CN(C)CCNCc1ccc(NC(=O)c2cccc(-c3ccccc3)c2Cl)nc1
IC50 [1]: > 1 µM | inhibition [2]: 27.7%

CC(=O)NCCNCc1ccc(NC(=O)c2cccc(-c3ccc(F)c(F)c3)c2Cl)nc1
IC50 [1]: > 1 µM | inhibition [2]: 2.32%

CC(=O)NCCNCc1ccc(NC(=O)c2cccc(-c3cc(F)c(F)c(F)c3)c2Cl)nc1
IC50 [1]: > 1 µM | inhibition [2]: 3.52%

CC(=O)NCCNCc1ccc(NC(=O)c2cccc(-c3ccc(F)cc3)c2Cl)nc1
IC50 [1]: > 1 µM | inhibition [2]: 6.96%

CC(=O)NCCNCc1ccc(NC(=O)c2cccc(-c3ccccc3)c2Cl)nc1F
IC50 [1]: 0.581 µM

COc1ccc(-c2cccc(C(=O)Nc3ccc(CNCCNC(C)=O)cn3)c2Cl)cc1OC
IC50 [1]: > 1 µM

CC(=O)NCCNCc1ccc(NC(=O)c2cccc(-c3ccncc3)c2Cl)nc1
IC50 [1]: > 1 µM | inhibition [2]: inactive

CC(=O)NCCNCc1ccc(NC(=O)c2cccc(-c3ccc4c(c3)OCCO4)c2Cl)nc1
IC50 [1]: 0.284 µM

CC(=O)NCCNCc1ccc(NC(=O)c2cccc(-c3ccccc3)c2Cl)nc1C(F)(F)F
IC50 [1]: > 1 µM | inhibition [2]: 33.8%

O=C(Nc1ccc(CN2CCC(O)CC2)cn1)c1cccc(-c2ccccc2)c1Cl
IC50 [1]: 0.46 µM

COC(=O)[C@H]1CCN(Cc2ccc(NC(=O)c3cccc(-c4ccccc4)c3Cl)nc2)C1
IC50 [1]: > 1 µM | inhibition [2]: 50.6%

O=C(Nc1ccc(CN2CC[C@H](C(=O)O)C2)cn1)c1cccc(-c2ccc3c(c2)OCCO3)c1
IC50 [1]: > 1 µM | inhibition [2]: inactive

O=C(Nc1ccc(CN2CCCC[C@H]2C(=O)O)cn1)c1cccc(-c2ccccc2)c1Cl
IC50 [1]: > 1 µM | inhibition [2]: 41.2%

COc1cccc(-c2cccc(C(=O)Nc3ccc(CNCCNC(C)=O)cn3)c2Cl)c1
IC50 [1]: > 1 µM | inhibition [2]: 46.1%

O=C(Nc1ccc(CNCCO)cn1)c1cccc(-c2ccccc2)c1Cl
IC50 [1]: 0.502 µM

O=C(Nc1ccc(CNC[C@@H](O)CO)cn1)c1cccc(-c2ccccc2)c1Cl
IC50 [1]: 0.442 µM

COCCOc1cccc(-c2cccc(C(=O)Nc3ccc(CNCCNC(C)=O)cn3)c2Cl)c1
IC50 [1]: > 1 µM | inhibition [2]: 5.29%

O=C(Nc1ccc(CN2CC[C@H](C(=O)O)C2)cn1)c1cccc(-c2ccccc2)c1Cl
IC50 [1]: 0.173 µM

CC(=O)NCCNCc1ccc(NC(=O)c2cccc(-c3cccc(CO)c3)c2Cl)nc1
IC50 [1]: > 1 µM | inhibition [2]: 2.5%

CO[C@H]1CCc2c(-c3cccc(C(=O)Nc4ccc(CNCCNC(C)=O)cn4)c3Cl)cccc21
IC50 [1]: > 1 µM | inhibition [2]: 7.75%

COCCNCc1ccc(NC(=O)c2cccc(-c3ccccc3)c2Cl)nc1
IC50 [1]: 0.797 µM

O=C(Nc1ccc(CN2CC[C@H](C(=O)O)C2)cn1)c1cccc(-c2ccc3c(c2)OCCO3)c1Cl
Activity (MDA-MB-231 [3]): Active | IC50 [1]: 0.0162 µM | Activity (MDA-MB-231 [4]): inactive

CC(=O)NCCNCc1ccnc(NC(=O)c2cccc(-c3ccccc3)c2Cl)c1
IC50 [1]: 0.894 µM

O=C(Nc1ccc(CN2CC(C(=O)O)C2)cn1)c1cccc(-c2ccccc2)c1Cl
IC50 [1]: 0.645 µM

COC1CN(Cc2ccc(NC(=O)c3cccc(-c4ccccc4)c3Cl)nc2)C1
IC50 [1]: > 1 µM | inhibition [2]: 44%

O=C(Nc1ccc(CN2CC[C@@H](O)C2)cn1)c1cccc(-c2ccccc2)c1Cl
IC50 [1]: 0.373 µM

O=C(Nc1ccc(CN2CC[C@H](C(=O)O)C2)cn1)c1cccc(-c2ccc3c(c2)OCCO3)c1F
IC50 [1]: > 1 µM | inhibition [2]: inactive

COC(=O)C1CN(Cc2ccc(NC(=O)c3cccc(-c4ccccc4)c3Cl)nc2)C1
IC50 [1]: > 1 µM | inhibition [2]: 32.5%

CC(=O)NCCNCc1ccc(NC(=O)c2cccc(-c3ccccc3)c2Cl)cc1
IC50 [1]: > 1 µM | inhibition [2]: 9.86%

CC(=O)NCCNCc1ccc(NC(=O)c2cccc(-c3ccc(S(C)(=O)=O)cc3)c2Cl)nc1
IC50 [1]: > 1 µM | inhibition [2]: inactive

O=C(Nc1ccc(CN2CC(O)C2)cn1)c1cccc(-c2ccccc2)c1Cl
IC50 [1]: 0.528 µM

COc1nc(NC(=O)c2cccc(-c3ccccc3)c2Cl)ccc1CNCCNC(C)=O
IC50 [1]: > 1 µM | inhibition [2]: 28.2%

CC(=O)NCCNCc1ccc(NC(=O)c2cccc(-c3ccccc3)c2C)nc1
IC50 [1]: > 1 µM | inhibition [2]: 44.2%

CC(=O)NCCNCc1ccc(NC(=O)c2cccc(-c3cccc4c3CC[C@@H]4O)c2Cl)nc1
IC50 [1]: > 1 µM | inhibition [2]: inactive

O=C(Nc1ccc(CN2CC[C@H](C(=O)O)C2)cn1)c1cccc(-c2ccc3c(c2)OCCO3)c1Br
IC50 [1]: 0.0465 µM
